In US10464901B2, “Composition including benzene diamine derivative for preventing or treating degenerative brain diseases” (UNIST(ULSAN NATIONAL INSTITUTE OF SCIENCE AND TECHNOLOGY), priority 2017, dated 2019):

Assays:
PAMPA-BBB analysis = type: in vitro ADME
Description: […] PAMPA-BBB analysis was performed by using a PAMPA Explorer kit (pION, Inc. Billerica, Mass., USA) according to the manufacture's protocol with slight modifications. […] The prepared solution was put in each well of a donor plate (200 μl, repeated 12 times). A polyvinylidene fluoride (PVDF, […]) filter membrane on an acceptor plate was coated with BBB-1 lipid formulation (5 μl, pION). The acceptor plate was placed on top of the donor plate to generate a “sandwich”. Brain sink buffer (BSB, 200 μl, pION) was added to each well of the acceptor plate. The sandwich-shaped plate was incubated for 4 hours at room temperature without stirring. UV-vis spectra of the solutions in the reference, acceptor, and donor plates were measured using a microplate reader. A PAMPA Explorer software [v. 3.8 (pION)] was used to calculate the −log Pe values for compounds. CNS±designations were assigned by comparison with compounds that were identified in previous reports.

Metal-free Aβ = test: Aβ aggregation inhibition, gel electrophoresis and Western blotting with anti-Aβ antibody (6E10); type: biochemical; details: Table 1 summary of Example 2; symbols not defined
Text: (§1) It was examined whether the benzene diamine derivatives of the present disclosure have inhibitory effects on Aβ aggregation. Aβ has two isoforms, and therefore, effects on Aβ40 and Aβ42 were examined, respectively. When metals are involved in protein folding, the probability of abnormal folding is high. In this case, the probability of Aβ aggregate formation is further increased.
(§2) In order to perform molecular analysis of Aβ aggregation-inhibitory effects of the benzene diamine derivatives of the present disclosure, gel electrophoresis and Western blotting were performed by using anti-Aβ antibody (6E10). As a control group, compound 1
(§3) In detail, each sample (10 μl) was separated on a 10-20% Tris-tricine gel (Invitrogen, Grand Island, N.Y., USA). After separation, the proteins were transferred onto a nitrocellulose membrane and blocked with bovine serum albumin (BSA, 3% w/v, Sigma-Aldrich, St Louis, Mo., USA) in Tris-buffered saline (TBS) containing 0.1% Tween-20 (TBS-T) at room temperature for 2 hours or at 4° C. overnight. The membrane was incubated in a 2% BSA (w/v in TBS-T) solution, together with anti-Aβ antibody (6E10, 1:2,000, Covance, Princeton, N.J., USA), at room temperature for 4 hours or at 4° C. overnight. The membrane was washed with TBS-T (3×, 10 min), and a secondary mouse antibody (1:5,000 in 2% BSA w/v in TBS-T; Cayman Chemical Company, Ann Arbor, Mich., USA) was added thereto, followed by incubation at room temperature for 1 hour. Thermo Scientific SuperSignal West Pico Chemiluminescent Substrate (Thermo Scientific, Rockford, Ill., USA), Biosesang ECL Plus kit (Biosesang, Gyeonggi-do, Republic of Korea), or homemade ECL kit53 were used for visualization, and ChemiDoc MP Imaging System (Bio-Rad, Hercules, Calif., USA) was used for detection.

Cu(II)-Aβ = test: as above; type: biochemical; details: Table 1 summary of Example 2; symbols not defined
Text: as §1, §2, §3

Zn(II)-Aβ = test: as above; type: biochemical; details: Table 1 summary of Example 2; symbols not defined
Text: as §1, §2, §3

[1] = Antioxidant effect: free organic radical-scavenging activity (ABTS) using cell lysate; type: biochemical; details: Table 1 summary of Example 3; symbols not defined
Description: It was examined whether the benzene diamine derivatives of the present disclosure have an antioxidant effect. It is known that reactive oxygen species induces oxidative stress in neuronal cells to cause neuronal cell death and causes protein misfolding to induce formation of Aβ aggregates. Therefore, compounds having antioxidant effects may be candidates for preventing or treating dementia.
Free organic radical-scavenging activity of the compound was determined according to a protocol of Cayman Chemical Company (Ann Arbor, Mich., USA) with slight modifications. For antioxidant analysis using a cell lysate, cells were seeded in a 6-well plate, and cultured until they reached 80-90% confluence. A cell lysate was prepared according to a known method, washed with a cold phosphate buffer solution (PBS; pH 7.4, GIBCO), and then harvested. Cell pellet was produced by centrifugation (2,000 g, 4° C., 10 min). This pellet was sonicated (5 sec pulse, 20 sec interval, three times) in 2 ml of cold assay buffer S13 (5 mM potassium phosphate, pH 7.4; 0.9% NaCl; 0.1% glucose) on ice. A cell lysate was centrifuged at 4° C. for 10 minutes at 5,000 g. A supernatant was removed, and left on ice until use. To the cell lysate supernatant (10 μl), the compound, metmyoglobin, ABTS (2,2′-azino-bis-3-ethylbenzothiazoline-6-sulfonic acid), and hydrogen peroxide were sequentially added. The mixture was incubated on a shaker at room temperature for 5 minutes, and absorbance at 750 nm was measured. The compound at a final concentration of 45, 90, 135, 180, 225, or 330 μM and Trolox (6-hydroxy-2,5,7,8-tetramethyl-chroman-2-carboxylic acid, dissolved in EtOH) were used. Antioxidant activity was calculated according to the measured absorbance [% inhibition=100×(A0−A)/A0, A0 represents absorbance of the supernant of the cell lysate]. Each measurement was repeated in triplicate.

Aβ40 and Aβ42 = test: Aβ aggregation inhibition in the presence or absence of metals, overall statements (FIG. 1); type: biochemical; details: two kinds of Aβ (Aβ40, Aβ42)
Text: as §1, §2, §3

[2] = test system: human neuroblastoma cell line SK-N-BE(2)-M17 (M17); test: Cytotoxicity-inhibitory effect, MTT cell viability with Aβ with or without metals; type: cell-based; details: M17 cells, irrespective of Aβ isoforms and metals, FIG. 4
Description: It was examined whether the benzene diamine derivatives of the present disclosure have cytotoxicity-inhibitory effect. Aβ aggregation and reactive oxygen species may cause cytotoxicity in neuronal cells, resulting in neuronal cell death.
In detail, human neuroblastoma cell line SK-N-BE(2)-M17 (M17) (ATCC, Manassa, Va., USA) was cultured in a 1:1 minimum essential medium (MEM; GIBCO, Grand Island, N.Y., USA), Ham's F12K Kaighn's Modification Media (F12K; GIBCO) supplemented with 10% (v/v) fetal bovine serum (FBS; Atlanta Biologicals, Flowery Branch, Ga., USA), 100 U/mL penicillin (GIBCO), and […] streptomycin (GIBCO). M17 cells were seeded in a 96-well plate (150,000 in 100 μl per well), and treated with various concentrations of the compound (0-50 μM, 1% v/v DMSO) in the presence or absence of CuCl2 or ZnCl2 (a metal/ligand ratio of 1:1 or 1:2), and in the presence or absence of Aβ 40 (Aβ:metal:compound=10:10:20 μM). After incubation at 37° C. for 24 hours, 25 μl of MTT (3-(4,5-dimethylthiazol-2-yl)-2,5-diphenyltetrazolium bromide) (5 mg/mL in PBS, pH 7.4) (GIBCO) was added to each well, and each plate was incubated at 37° C. for 4 hours. […] Absorbance at 600 nm was measured by using a microplate reader.

Row | Structure (SMILES) | PAMPA-BBB permeability class (PAMPA-BBB analysis; 50 μM, incubation 4 hrs, U.V) | Papp at 4 h, 50 μM (PAMPA-BBB analysis; PAMPA, pH 7.4, 50 μM, incubation 4 hrs, U.V, read-out: Pe) [×10⁻⁶ cm/s] | CNS± designation (PAMPA-BBB analysis; assigned by comparison with compounds identified in previous reports) | Metal-free Aβ (inhibitory effect on Aβ aggregation) (Metal-free Aβ) | Cu(II)-Aβ (inhibitory effect on Aβ aggregation) (Cu(II)-Aβ) | Zn(II)-Aβ (inhibitory effect on Aβ aggregation) (Zn(II)-Aβ) | Reactive oxygen species (antioxidant effect) [1] | inhibitory effect on Aβ aggregation (Aβ40 and Aβ42) | effect in cytotoxicity-inhibition test (worded result) [2]
1 | CC(=O)[C@H]1CC[C@H]2[C@@H]3CCC4=CC(=O)CC[C@]4(C)[C@H]3CC[C@]12C [Progesterone, reference compound] | High | 46.7 | (CNS+) |  |  |  |  |  | 
2 | CN(C)c1ccc(NCCS)cc1 [Compound 5, 2-((4-(dimethylamino)phenyl)amino)ethane-1-thiol] |  |  |  | ◯ | ◯ | ◯ | ◯ | showed inhibitory effect on both two kinds of Aβ, irrespective of the kind and presence of metals | 
3 | Nc1ccc(NCc2ccc(F)cn2)cc1 [Compound 3, N^1-((5-fluoropyridin-2-yl)methyl)benzene-1,4-diamine] |  |  |  | ◯ | ◯ | ◯ | ◯ | showed inhibitory effect on both two kinds of Aβ, irrespective of the kind and presence of metals | 
4 | c1ccc(NCc2ccccn2)cc1 [Compound 1, reference compound] |  |  |  |  |  |  | No effect | did not show inhibitory effect on Aβ aggregation under any conditions | did not show excellent Aβ aggregation-inhibitory effect
5 | CN(C)c1ccc(NCc2nccn2C)cc1 [Compound 4, N^1,N^1-dimethyl-N^4-((1-methyl-1H-imidazol-2-yl)methyl)benzene-1,4-diamine] |  |  |  |  | ◯ | ◯ | ◯ | showed inhibitory effect on Aβ with metals | 
